{"source": "patent US9434687B2", "about": "“Detection of synthetic cannabinoids” (priority 2011, dated 2016)", "data": [{"tested_on": "antibodies raised to Immunogens I & II", "assay": "Competitive ELISA, selected molecules as potential cross-reactants (Table 3)", "type": "binding, sheep", "experimental": "(a) The wells of an enhanced binding 96 well polystyrene microtiter plate were coated with the Ig fraction of the antiserum raised to Immunogen I (Hapten A-BTG—example 5) and diluted in 10 mM Tris, pH8.5 (125 μl/well). The appropriate antibody coating concentration was determined using standard ELISA checkerboard techniques. The plate was incubated for 2 hours at 37° C., washed 4 times over a 10-minute period with Tris buffered saline containing Tween 20 (TBST) and tapped dry. Standard solutions of JWH synthetic cannabinoids, metabolites and selected molecules were prepared in TBST and 50 μl of each was added to the appropriate wells. 75 μl of conjugate (Hapten A-HRP) diluted in Tris buffer containing EDTA, D-mannitol, sucrose, thimerosal and BSA, was added to each of the wells. The appropriate dilution of conjugate was also determined using standard ELISA checkerboard techniques. The plate was incubated at 25° C. for 1 hour. The excess unbound conjugate was removed by washing 6 times over a 10-minute period with TBST and tapped dry. 125 μl of tetramethylbenzedine (TMB) substrate solution was added to each well of the plate that was then incubated for 15-20 minutes in the dark at room temperature. The reaction was terminated by addition of 125 μl of 0.2M sulphuric acid to each well. The absorbance was then measured at 450 nm using a microtiter plate reader.\nEmploying each series of standards, calibration curves were generated and these were used to determine the specificity of the immunoassay for the JWH synthetic cannabinoids, metabolites and selected molecules. The results of this study are presented in Tables 1 to 3, cross-reactivity being calculated according to the following formula: % CR=IC50,JWH-018/IC50,CR×100\nWhere % CR is the percentage cross-reactivity, IC50, JWH-018 is the concentration of JWH-018 that causes 50% displacement of signal and IC50, CR is the concentration of JWH synthetic cannabinoid/metabolite/selected molecule that causes 50% displacement of signal.\nThe antibody produced from Immunogen I is able to bind to JWH molecules known to be incorporated in herbal therapeutics such as JWH-018, proposed metabolites such as M2 (Wintermeyer et al 2010), and potential metabolites such as M5. The detection and quantification of other JWH SSCs is also provided for, the antibodies of the invention bind a range of molecules comprising the 3-(1-naphthoyl)-1H-indole structure (e.g. JWH-071, JWH-398, M1 etc.). […] The concept of using the antibodies of the invention to detect and determine future stealth synthetic cannabinoids is highlighted in Table 4; the 5-fluoropentyl derivative known to bind the CB 1 receptor, but which as of yet has not been detected in herbal therapeutics or similar substances, binds to antibodies raised from Immunogens I and II.", "values": [{"compound": "O=C(c1cccc2ccccc12)c1cn(CCCCCF)c2ccccc12", "note": "[AM-2201, 1-(5-Fluoropentyl)indol-3-yl (1-naphthyl) methanone]", "binding / cross-reaction with antibodies raised from Immunogens I and II (in words)": "binds"}, {"compound": "O=C(O)CCCCn1cc(C(=O)c2cccc3ccccc23)c2ccccc21", "note": "[JWH-018 N-pentanoic acid metabolite]", "binding / cross-reaction with antibodies raised from Immunogens I and II (in words)": "bind"}, {"compound": "CCCCCn1cc(C(=O)c2ccc(Cl)c3ccccc23)c2ccccc21", "note": "[JWH-398]", "binding / cross-reaction with antibodies raised from Immunogens I and II (in words)": "bind"}]}]}
